Reference: PMC5847527, “Identification of a novel 2-oxindole fluorinated derivative as in vivo antitumor agent for prostate cancer acting via AMPK activation” (Scientific Reports, 2018)

Key:
[1] = target: T1, AMPK (Homo sapiens, UniProt Q13131); assay: AMPK and ACC phosphorylation by Western blot in PC-3 cells; type: cell-based; conditions: 25 µM, 1 hour
T1 construct: endogenous in cells; host or cells: PC-3, DU145, LNCaP
Excerpt: To investigate the effect of the compounds on AMPK activity at cellular level, compounds 8a-c and 9a-b were selected to perform AMPK phosphorylation assays in human prostate cancer cell lines. We use the PC-3 cell line as it is androgen-resistant and represents the advanced and aggressive stage of prostate cancer. […] AMPK inhibits lipogenic pathway through phosphorylation of its well-known substrate acetyl-CoA carboxylase (ACC). To confirm the modulation of AMPK activity in prostate cells by the compounds, we determined levels of phosphorylated ACC in 2-oxindole fluorinated derivatives-treated cells. […] It is worthy to note that the highest ACC phosphorylation was obtained with compound 8c denoting a powerful activity of this compound in PC-3 cells.
Figure 2 Effect of 2-oxindole fluorinated derivatives on AMPK activity in prostate cancer cells. (A) PC-3, DU145 and LNCaP cells were treated with 25 µM of the selected 2-oxindole fluorinated derivatives for 1 hour. Levels of the phosphorylated AMPK (pAMPK), phosphorylated ACC (pACC) and their total forms were determined by Western blot. Upper panel, a representative Western blot of three different experiments. β-tubulin (β-Tub) serves as a loading control. […] Lower panels, densitometric analyses of bands represented as the mean of the ratio pAMPK/AMPK or pACC/ACC ± SD of three different experiments. *p < 0.05 compared with the controls by one-way ANOVA followed by Fisher’s LSD test; ^#p < 0.05 compared with 2-oxindole fluorinated derivates or with the AMPK activators AMP or A769662 by one-way ANOVA followed by Tukey test.
(§1) Human prostate cancer epithelial PC-3, DU145 and LNCaP and human prostate normal RWPE-1 cells were purchased from American Type Culture Collection (ATCC CRL-1435 CRL-1740 and CRL 11609 respectively) (Rockville, MD, USA). The human prostate normal PNT2 cell line was purchased to ECACC (European Collection of Cell cultures, Salisbury, SP4 0JG, UK). Cells were routinely grown in RPMI 1640 medium supplemented with 100 IU/ml penicillin G sodium, 100 µg/ml streptomycin sulfate, 0.25 µg/ml amphotericin B (Invitrogen, Paisley, UK) and 10% fetal calf serum. Cells were used at passages between 10–20. For treatment experiments, cells were plated and grown over night, the medium was then replaced with serum-free RPMI 1640 for 24 hours and then incubated with different doses of the compounds for the indicated times.
Cells were lysed in Lysis buffer (50 mM Tris pH 7.4, 0.8 M NaCl, 5 mM MgCl2, 0.1% Triton X-100) containing Protease Inhibitor and Phosphatase inhibitor Cocktails (Roche, Basel, Switzerland). Protein concentrations were measured by BioRad™ protein assay kit (Richmond, CA, USA). Equal amount of protein (20 μg) from each sample was separated on 8% SDS–PAGE gels and transferred to PVDF membranes (BioRad). The membranes were blocked with blocking buffer (1× TBS, 0.1% Tween 20 with 5% w/v fat-free dry milk), washed and incubated with primary antibodies at 4 °C for 12 h. The membranes were subsequently washed with TBS-T (1× TBS and 0.1% Tween 20) and incubated with horseradish peroxidase-conjugated anti-mouse or anti-rabbit IgG antibodies (Sigma, St Louis, MO, USA) at room temperature for 1 h. The immune complex was visualized with an ECL system (Cell Signaling Technology). Films were analyzed by densitometry. The anti-pAMPKα1-thr172, pACC-ser79, pP53, P21, pRaptor and the antibodies against the corresponding total forms were obtained from Cell Signaling Technology (Danvers, MA, USA). The anti-caspase 3 and anti-procaspase 3 were from Santa Cruz Biotechnology (Dallas, Texas, USA). The anti-HIF1A was from Novus Biologicals LLC (Littleton, CO, USA). The anti-Cyclin D1 antibody was obtained from ThermoFisher (Alcobendas, Madrid, Spain). All the other chemicals were obtained from Sigma (St. Louis, MO, USA).

[2] = system: DU145 cells; assay: Cell viability by MTT assay, DU145; type: cell-based, human
Experimental: Figure 3 Comparison of the effect of 2-oxindole fluorinated derivatives on the proliferation of human prostate cancer cells. (A) Normal (PTN2 and RWPE-1) and cancer (PC3,DU145 and LNCaP) prostate cells were treated with different doses of the compounds for 24 hours and cell viability was monitored by MTT assay. […] (C) PC-3, DU145 and LNCaP cells were treated with 25 µM of compound 8c for different times. Values were normalized with the control and represent the mean ± SD of at least three independent experiments. *p < 0.05 and **p < 0.01 compared to control by the Student’s - test.
as §1
Cell viability was determined by 3-(4,5-dimethylthiazol-2-yl)-2,5-diphenyltetrazolium bromide (MTT) (Sigma-Aldrich) method. In brief, a total of 5000 cells/well were seeded into 12-well plate in a final volume of 1 mL. After treatments, 20 µl MTT solution (5 mg/ml in PBS) was added to the medium and cells were incubated at 37 °C for 4 h. Then, the supernatant was discarded and isopropanol was added to dissolve the formazan crystals. Treatments were carried out in triplicate. The optical density in each well was evaluated by measurement of absorbance at 490 and 650 nm using a microplate reader (ELX 800 Bio-Tek Intruments, INC). IC50 values were calculated using GraphPad Prism vs 6.0 (GraphPad Software, Inc, La Jolla, CA, USA). Cell viability was also determined by counting viable and dead cells by Trypan blue staining. Trypan blue positive and negative cells were counted using a Countess^TM automated cell counter (Invitrogen, Carlsbad, CA, USA). Results were expressed in relation to total number of cells counted.

T1 sequence (Q13131 whole entry): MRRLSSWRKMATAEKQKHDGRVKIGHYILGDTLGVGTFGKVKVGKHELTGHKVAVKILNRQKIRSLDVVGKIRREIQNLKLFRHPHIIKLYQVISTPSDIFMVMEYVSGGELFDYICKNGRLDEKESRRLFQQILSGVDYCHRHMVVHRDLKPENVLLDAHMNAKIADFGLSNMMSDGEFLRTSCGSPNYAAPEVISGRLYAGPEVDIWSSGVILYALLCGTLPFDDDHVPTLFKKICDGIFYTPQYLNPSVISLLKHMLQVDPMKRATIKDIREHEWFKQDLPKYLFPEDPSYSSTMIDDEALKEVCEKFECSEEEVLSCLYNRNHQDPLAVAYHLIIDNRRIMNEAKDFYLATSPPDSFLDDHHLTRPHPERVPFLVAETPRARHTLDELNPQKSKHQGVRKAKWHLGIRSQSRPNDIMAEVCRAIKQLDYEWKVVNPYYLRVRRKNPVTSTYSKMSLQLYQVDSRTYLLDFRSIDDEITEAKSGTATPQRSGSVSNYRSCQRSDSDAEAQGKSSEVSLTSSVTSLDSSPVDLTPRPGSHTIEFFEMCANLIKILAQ
T1 sequence (Q9Y478 2-270 partner limits assumed): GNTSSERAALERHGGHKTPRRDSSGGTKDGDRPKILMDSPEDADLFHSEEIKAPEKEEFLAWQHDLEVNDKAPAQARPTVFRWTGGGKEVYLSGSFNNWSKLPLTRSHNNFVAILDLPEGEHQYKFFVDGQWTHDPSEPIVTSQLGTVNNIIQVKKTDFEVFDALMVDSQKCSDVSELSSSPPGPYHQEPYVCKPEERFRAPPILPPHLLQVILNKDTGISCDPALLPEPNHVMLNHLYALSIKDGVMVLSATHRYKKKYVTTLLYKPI
T1 sequence (P54619 whole entry partner): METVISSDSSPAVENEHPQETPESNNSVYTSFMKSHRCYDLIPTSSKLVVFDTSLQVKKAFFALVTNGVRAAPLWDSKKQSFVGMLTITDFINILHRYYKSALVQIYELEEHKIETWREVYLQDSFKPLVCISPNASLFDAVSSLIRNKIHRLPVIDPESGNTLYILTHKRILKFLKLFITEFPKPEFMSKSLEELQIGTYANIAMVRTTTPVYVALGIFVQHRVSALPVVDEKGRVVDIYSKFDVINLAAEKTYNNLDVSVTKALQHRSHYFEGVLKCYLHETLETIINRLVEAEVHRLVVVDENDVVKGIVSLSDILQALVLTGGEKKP

## O=C1Nc2ccccc2C1(F)Cc1ccc(-c2ccccc2)o1 (stereo not shown) [Compound 8c, 3-fluoro-3-((5-phenylfuran-2-yl)methyl)indolin-2-one]
[1]
  ACC phosphorylation (pACC/ACC): augmented pACC
[1]; compared to controls
  Thr172 phosphorylation of AMPK (pAMPK/AMPK): significant increase in Thr172 phosphorylation of AMPK
[2]; DU145, 50 μM
  inhibitory efficacy on cells viability at 50 μM: 88%
[2]; Homo sapiens, DU-145, DU145, MTT, 24 hours
  IC50: 19 µM
